Measurements published in US20090131468A1, “Bis-(Sulfonylamino) Derivatives in Therapy 065” (AstraZeneca AB, priority 2007, published 2009).

molecular target: T1, human mPGES-1 (Homo sapiens, UniProt O14684); experiment: Microsomal prostaglandin E synthase biochemical assay; settings: microsome preparation containing human mPGES-1; PGH2 10.8 μM, GSH 2.5 mM, pH 6.8; PGE2 quantified by HTRF; average of at least n=2
T1 sequence (O14684 1-152): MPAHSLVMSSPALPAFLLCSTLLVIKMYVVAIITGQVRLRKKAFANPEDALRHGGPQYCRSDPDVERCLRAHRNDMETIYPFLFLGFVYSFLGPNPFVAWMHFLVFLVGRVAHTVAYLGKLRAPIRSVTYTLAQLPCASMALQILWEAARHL
Procedure, shortened: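 Human mPGES-1 microsomes (from IL-1β-stimulated A549 cells or Sf9 cells expressing human mPGES-1) were pre-incubated 15 min with compound in potassium phosphate buffer pH 6.8 with GSH. PGH2 was then added, and the reaction was stopped after one minute with acidic ferric chloride/citrate. PGE2 was read by HTRF, and IC50 was taken from control-normalised activity.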

Compared with NS(=O)(=O)c1ccccc1S(=O)(=O)NC(=O)c1ccc(-c2nc3cccnc3o2)cc1 [Example 7, 4-(7Oxa-5,9-diazabicyclo [4.3.0]nona-2,4,8,10-tetraen-8-yl)-N-(2-sulfamoylphenyl)-sulfonyl-benzamide], NS(=O)(=O)c1ccccc1S(=O)(=O)NC(=O)c1ccc2oc(-c3cccnc3)cc2c1 [Example 123, 2-(Pyridin-3-yl)-N-(2-sulfamoylphenylsulfonyl)benzofuran-5-carboxamide] is 2-fold higher in IC50: 1 µM for the first, 2 µM for the second.

Going from CC(C)(C)C#Cc1ccc(C(=O)NS(=O)(=O)c2ccccc2S(N)(=O)=O)cn1 [Example 116, 6-(3,3-Dimethylbut-1-ynyl)-N-(2-sulfamoylphenylsulfonyl)nicotinamide] to CC(C)(C)C#Cc1ccc(C(=O)NS(=O)(=O)c2ccccc2S(N)(=O)=O)cc1C#N [Example 79, 3-Cyano-4-(3,3-dimethylbut-1-ynyl)-N-(2-sulfamoylphenylsulfonyl)benzamide], the IC50 falls from 0.35 µM to 0.07 µM (5-fold).

Going from NS(=O)(=O)c1ccccc1S(=O)(=O)NC(=O)c1ccc(C#CC2(O)CCCC2)cc1 [Example 58, 4-((1-Hydroxycyclopentyl)ethynyl)-N-(2-sulfamoylphenylsulfonyl)benzamide] to CC(C)C#Cc1ccc(C(=O)NS(=O)(=O)c2ccccc2S(N)(=O)=O)cc1 [Example 113, 4-(3-Methylbut-1-ynyl)-N-(2-sulfamoylphenylsulfonyl)benzamide], the IC50 falls from 1.9 µM to 0.08 µM (24-fold). The second is the more potent here.

Going from NS(=O)(=O)c1ccccc1S(=O)(=O)NC(=O)c1ccc(COCCC(F)(F)F)cc1 [Example 97, N-(2-Sulfamoylphenylsulfonyl)-4-((3,3,3-trifluoropropoxy)methyl)benzamide] to NS(=O)(=O)c1ccccc1S(=O)(=O)NC(=O)c1cccc(COCC(F)(F)C(F)F)c1 [Example 21, N-(2-Sulfamoylphenyl)sulfonyl-3-(2,2,3,3-tetrafluoropropoxymethyl)benzamide], the IC50 falls from 5.1 µM to 2.2 µM (2.3-fold). The second is the more potent here.

Going from NS(=O)(=O)c1ccccc1S(=O)(=O)NC(=O)c1csc2ccccc12 [Example 40, N-(2-Sulfamoylphenyl)sulfonylbenzothiophene-3-carboxamide] to NS(=O)(=O)c1ccccc1S(=O)(=O)NC(=O)c1ccc(Br)cc1O [Example 82, 4-Bromo-2-hydroxy-N-(2-sulfamoylphenylsulfonyl)benzamide], the IC50 falls from 2.2 µM to 0.54 µM (4.1-fold).

Compared with CC(C)Oc1cc(C(=O)NS(=O)(=O)c2ccccc2S(N)(=O)=O)ccc1-c1cc2ccccc2o1 [Example 127, 4-(Benzofuran-2-yl)-3-isopropoxy-N-(2-sulfamoylphenylsulfonyl)benzamide], NS(=O)(=O)c1ccccc1S(=O)(=O)NC(=O)c1ccc(C#Cc2ccccc2)c(CO)c1 [Example 100, 3-(Hydroxymethyl)-4-(phenylethynyl)-N-(2-sulfamoylphenylsulfonyl)benzamide] is 7.4-fold higher in IC50: 0.0095 µM for the first, 0.07 µM for the second. The first is the more potent here.

Going from NS(=O)(=O)c1ccccc1S(=O)(=O)NC(=O)c1ccc(-c2cccc(Cl)c2Cl)cn1 [Example 2, 5-(2,3-Dichlorophenyl)-N-(2-sulfamoylphenyl)sulfonyl-pyridine-2-carboxamide] to CC(C)Oc1cc(C(=O)NS(=O)(=O)c2ccccc2S(N)(=O)=O)ccc1C#CC1CCCC1 [Example 130, 4-(Cyclopentylethynyl)-3-isopropoxy-N-(2-sulfamoylphenylsulfonyl)benzamide], the IC50 falls from 2 µM to 0.02 µM (100-fold).
